These results are taken from PubChem BioAssay (NCI).

Some test systems named below: MOLT-4 leukemia; DMS 114 small cell lung; SW-620 colon; LXFL 529 NSCLC; KM20L2 colon; SNB-19 CNS; DMS 273 small cell lung; HOP-18 NSCLC; UO-31 renal; HCT-15 colon; M19-MEL melanoma; HT29 colon; XF 498 CNS.
Common to all, as to assay: NCI anticancer screen, dose series, 48 h

The structures appear in SMILES notation. Values joined by “and” are separate entries in the source; they are usually repeats but may differ in a detail not shown here. Equal values may be shown once.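 Cultured in 96-well plates, cells were exposed to test compound for 48 hours across five concentrations. Here, GI50 denotes the concentration required for 50% inhibition of growth. Definition used: TGI = concentration required for complete inhibition of growth.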

Take `COS(=O)c1cc(Cl)cc(Cl)c1OC(=O)CSSCC(=O)Oc1c(Cl)cc(Cl)cc1S(=O)OC` (stereo unspecified): the TGI with MOLT-4 leukemia came out at 46.2 µM; with DMS 114 small cell lung it was 35.3 µM; with SW-620 colon it was 58.4 µM; in the experiment on LXFL 529 NSCLC it was 47.6 µM; with KM20L2 colon, 67.2 µM; in the experiment on SNB-19 CNS, 49.2 µM. Also, the TGI is 32.7 µM in the experiment on DMS 273 small cell lung; over 100 µM in the experiment with HOP-18 NSCLC; 60 µM in the experiment on UO-31 renal; 45.1 µM in the experiment with HCT-15 colon; 57.7 µM with M19-MEL melanoma; 96.9 µM with HT29 colon.

As to `O=C([O-])c1ccc([I+]c2ccccc2)cc1`, the TGI in the experiment with MOLT-4 leukemia, with DMS 114 small cell lung, in the experiment on SW-620 colon, with LXFL 529 NSCLC, in the experiment on KM20L2 colon and in the experiment on SNB-19 CNS was over 100 µM each time. Moreover, the TGI in the experiment with XF 498 CNS, with DMS 273 small cell lung, in the experiment with HOP-18 NSCLC, in the experiment with UO-31 renal, in the experiment on HCT-15 colon and with M19-MEL melanoma was over 100 µM in each case. Besides, the TGI with HT29 colon is over 100 µM.

Consider `O=C1C=CC2(CCC23C=CC(=O)O3)O1` (stereo unspecified), for which the TGI in the experiment with MOLT-4 leukemia, in the experiment on DMS 114 small cell lung, with SW-620 colon, in the experiment on LXFL 529 NSCLC, in the experiment on KM20L2 colon and with SNB-19 CNS was over 100 µM in each case. For the same compound, the TGI in the experiment with XF 498 CNS, in the experiment on HOP-18 NSCLC, in the experiment on UO-31 renal, in the experiment with HCT-15 colon, with M19-MEL melanoma and in the experiment with HT29 colon was over 100 µM each time.

`N#Cc1ccccc1Sc1ccccc1N`: the TGI in the experiment on MOLT-4 leukemia, in the experiment on DMS 114 small cell lung, in the experiment on SW-620 colon, in the experiment on LXFL 529 NSCLC, in the experiment on SNB-19 CNS and in the experiment with XF 498 CNS was over 100 µM throughout. Besides, the TGI in the experiment with DMS 273 small cell lung, in the experiment with HOP-18 NSCLC, in the experiment with UO-31 renal, in the experiment on M19-MEL melanoma and in the experiment on HT29 colon was over 100 µM throughout.

Take `C/C(=N\NC(=S)N1CCC1)c1ccccn1`: the GI50 in the experiment with MOLT-4 leukemia is 0.00601 µM; in the experiment on SW-620 colon, 0.0367 µM; with UO-31 renal, 0.0188 µM; with HCT-15 colon, 0.00336 µM; with HT29 colon, 0.00471 µM. Further, the TGI in the experiment with MOLT-4 leukemia is over 10.5 µM; in the experiment on SW-620 colon, over 100 µM; in the experiment with LXFL 529 NSCLC, over 100 µM; in the experiment with KM20L2 colon, over 100 µM; in the experiment with SNB-19 CNS, over 100 µM; with XF 498 CNS, over 100 µM. The TGI with DMS 273 small cell lung is 1.82 µM; in the experiment with HOP-18 NSCLC, over 100 µM; with UO-31 renal, 15.3 µM; with HCT-15 colon, 45.4 µM; in the experiment with M19-MEL melanoma, over 100 µM; in the experiment with HT29 colon, 34.5 µM.

Take `CCOC(=O)C1=C(C)N(NC(N)=O)C2(N)N(NC(N)=O)C(C)=C(C(=O)OCC)C12C#N` (stereo unspecified): the TGI in the experiment with MOLT-4 leukemia, with DMS 114 small cell lung, in the experiment with SW-620 colon, in the experiment on LXFL 529 NSCLC, in the experiment with KM20L2 colon and in the experiment on SNB-19 CNS was over 100 µM throughout. Also, the TGI in the experiment with XF 498 CNS, in the experiment with DMS 273 small cell lung, with UO-31 renal, in the experiment with HCT-15 colon, in the experiment with M19-MEL melanoma and in the experiment with HT29 colon was over 100 µM each time.

Turning to `CC[n+]1c(-c2ccccc2)c2cc(N)ccc2c2ccc(N)cc21`, the GI50 in the experiment on MOLT-4 leukemia is 2.77 µM; in the experiment on SW-620 colon it was 1.05 µM; with SNB-19 CNS it was 0.368 µM and 0.502 µM and 1.43 µM; in the experiment on UO-31 renal it was 21.4 µM and 86.9 µM and 27.2 µM; with HCT-15 colon, 39.6 µM; with HT29 colon it was 1.64 µM. In addition, the TGI with MOLT-4 leukemia was 21.1 µM and 13 µM and 35.9 µM; in the experiment with DMS 114 small cell lung it was 10.1 µM; with SW-620 colon, 16.2 µM and 33.3 µM and 22.2 µM; with LXFL 529 NSCLC it was 2.94 µM; with KM20L2 colon, 25.9 µM; with DMS 273 small cell lung, 10.7 µM. Moreover, the TGI was 18.3 µM in the experiment on HOP-18 NSCLC; over 100 µM with UO-31 renal; over 100 µM in the experiment on HCT-15 colon; 10.5 µM in the experiment with M19-MEL melanoma; 9.45 µM and 29 µM in the experiment with HT29 colon.

On to `C[n+]1cn(CC(=O)c2ccccc2)c(C(N)=O)c1N`, for which the TGI in the experiment on MOLT-4 leukemia is over 100 µM; in the experiment with DMS 114 small cell lung it was 64.6 µM; in the experiment with SW-620 colon it was 29.4 µM; with LXFL 529 NSCLC it was over 100 µM; in the experiment with KM20L2 colon, over 100 µM; in the experiment with SNB-19 CNS, over 100 µM. The TGI is over 100 µM in the experiment with DMS 273 small cell lung; over 100 µM with HOP-18 NSCLC; over 100 µM with UO-31 renal; over 100 µM in the experiment with HCT-15 colon; 63.2 µM in the experiment on M19-MEL melanoma; over 100 µM in the experiment with HT29 colon.

With `C=C1C(=O)O[C@@H]2C[C@@]3(C)[C@H](O)CCC(=C)[C@@H]3C[C@H]12`, the TGI stood at 42.2 µM in the experiment with DMS 114 small cell lung; 11.7 µM with SW-620 colon; 12.8 µM in the experiment on LXFL 529 NSCLC; 20.3 µM with KM20L2 colon; 46.9 µM in the experiment on SNB-19 CNS; 9.74 µM in the experiment on XF 498 CNS. Besides, the TGI was 27.4 µM in the experiment with DMS 273 small cell lung; 23.2 µM with UO-31 renal; 35.1 µM with HCT-15 colon; 32.9 µM in the experiment on M19-MEL melanoma; 12.1 µM in the experiment on HT29 colon.

Take `Cc1nc2sccn2c1C(=O)NNC(N)=S`: the TGI with MOLT-4 leukemia, in the experiment on DMS 114 small cell lung, with SW-620 colon, in the experiment with LXFL 529 NSCLC, with KM20L2 colon and in the experiment with SNB-19 CNS was over 100 µM throughout. Moreover, the TGI with DMS 273 small cell lung, in the experiment on HOP-18 NSCLC, with HCT-15 colon and with HT29 colon was over 100 µM in each case.

On to `O=C(Nc1ccccc1C(=O)NC(=O)c1ccccc1NC(=O)c1ccccc1)c1ccccc1`, for which the TGI was determined as 9.74 µM with DMS 114 small cell lung; 18.6 µM in the experiment with SW-620 colon; 15.6 µM with KM20L2 colon; 24.8 µM in the experiment with SNB-19 CNS; 4.38 µM with XF 498 CNS; 7.78 µM in the experiment with DMS 273 small cell lung. For the same compound, the TGI in the experiment on HOP-18 NSCLC came out at 17.9 µM; with HCT-15 colon it was 34.3 µM; in the experiment on HT29 colon it was 12.7 µM.
